Assay results reported in publication PMC7714403 (JCI Insight, 2020).
Read-outs that look alike come from different tables or passages of the source.

Columns and labels:
Assay in all cases: KiNativ, MOLM13 live cells
Assay type in all cases: cell-based
eEF2K = eEF2K (Homo sapiens, UniProt O00418); conditions: MOLM-13; 100 nM, 2 hours; ATP; read-out: Inhibition vs DMSO
Procedure: (§1) Samples were analyzed by KiNativ in situ kinase profiling by ActivX Biosciences.

ULK3 = ULK3 (Homo sapiens, UniProt Q6PHR2); conditions: 100 nM, 2 hours; Lys1
Procedure: as §1

CDK7 = CDK7 (Homo sapiens, UniProt P50613); conditions: MOLM-13; 100 nM, 2 hours; Lys2; read-out: Inhibition vs DMSO
Procedure: as §1

AurB = AurB (Homo sapiens, UniProt Q96GD4); conditions: MOLM-13; 100 nM, 2 hours; Lys1; read-out: Inhibition vs DMSO
Procedure: as §1

NEK9 = target: T1, NEK9 (Homo sapiens, UniProt Q8TD19); conditions: MOLM-13, 2 h, 100 nM
T1 sequence (Q8TD19 1-979): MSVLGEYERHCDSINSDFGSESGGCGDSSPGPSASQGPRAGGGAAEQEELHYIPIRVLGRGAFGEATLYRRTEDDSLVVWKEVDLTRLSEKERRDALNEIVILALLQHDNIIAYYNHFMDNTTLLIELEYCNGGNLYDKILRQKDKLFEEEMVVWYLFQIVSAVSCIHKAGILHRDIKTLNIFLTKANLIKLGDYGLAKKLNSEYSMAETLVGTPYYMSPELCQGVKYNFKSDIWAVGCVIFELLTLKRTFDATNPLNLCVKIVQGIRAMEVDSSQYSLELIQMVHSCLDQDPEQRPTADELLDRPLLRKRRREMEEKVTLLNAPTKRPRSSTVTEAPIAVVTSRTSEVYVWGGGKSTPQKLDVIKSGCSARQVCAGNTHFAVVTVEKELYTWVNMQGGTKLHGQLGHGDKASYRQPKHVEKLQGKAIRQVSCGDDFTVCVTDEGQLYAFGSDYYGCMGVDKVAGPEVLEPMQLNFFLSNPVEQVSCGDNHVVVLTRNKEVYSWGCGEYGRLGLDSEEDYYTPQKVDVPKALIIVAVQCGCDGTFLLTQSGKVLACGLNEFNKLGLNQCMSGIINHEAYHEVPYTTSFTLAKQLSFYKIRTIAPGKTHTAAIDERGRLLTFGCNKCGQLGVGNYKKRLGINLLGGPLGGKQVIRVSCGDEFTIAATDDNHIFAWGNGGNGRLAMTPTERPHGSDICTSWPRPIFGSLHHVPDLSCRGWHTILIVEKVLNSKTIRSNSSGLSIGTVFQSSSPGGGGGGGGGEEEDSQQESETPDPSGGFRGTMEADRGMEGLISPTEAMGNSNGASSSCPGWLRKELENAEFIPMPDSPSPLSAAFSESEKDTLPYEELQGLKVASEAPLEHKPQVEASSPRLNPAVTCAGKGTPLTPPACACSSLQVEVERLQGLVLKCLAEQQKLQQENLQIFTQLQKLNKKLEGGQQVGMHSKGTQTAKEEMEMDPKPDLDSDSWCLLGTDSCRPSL
Procedure: as §1

TAK1 = TAK1 (Homo sapiens, UniProt O43318); conditions: MOLM-13; 100 nM, 2 hours; Lys2; read-out: Inhibition vs DMSO
Procedure: as §1

DGKA = DGKA (Homo sapiens, UniProt P23743); conditions: MOLM-13; 100 nM, 2 hours; ATP; read-out: Inhibition vs DMSO
Procedure: as §1

LOK = LOK (Homo sapiens, UniProt O94804); conditions: 100 nM, 2 hours
Procedure: as §1

RSK2 domain1 = target: T2, RSK2 domain1 (Homo sapiens, UniProt P51812); conditions: MOLM-13, 2 h, 100 nM
T2 construct: RSK2 domain1
Procedure: as §1

IRAK1 = IRAK1 (Homo sapiens, UniProt P51617); conditions: MOLM-13; 100 nM, 2 hours; Lys2; read-out: Inhibition vs DMSO
Procedure: as §1

NEK2 = NEK2 (Homo sapiens, UniProt P51955); conditions: MOLM-13; 100 nM, 2 hours; Lys2; read-out: Inhibition vs DMSO
Procedure: as §1

FRAP = FRAP (Homo sapiens, UniProt P42345); conditions: MOLM-13; 100 nM, 2 hours; ATP; read-out: Inhibition vs DMSO
Procedure: as §1

Erk5 = Erk5 (Homo sapiens, UniProt Q13164); conditions: MOLM-13; 100 nM, 2 hours; Lys2; read-out: Inhibition vs DMSO
Procedure: as §1

PAN3 = target: T3, PAN3 (Homo sapiens, UniProt Q58A45); conditions: MOLM-13, 2 h, 100 nM, ATP, read-out: Inhibition vs DMSO
T3 sequence (Q58A45 1-887): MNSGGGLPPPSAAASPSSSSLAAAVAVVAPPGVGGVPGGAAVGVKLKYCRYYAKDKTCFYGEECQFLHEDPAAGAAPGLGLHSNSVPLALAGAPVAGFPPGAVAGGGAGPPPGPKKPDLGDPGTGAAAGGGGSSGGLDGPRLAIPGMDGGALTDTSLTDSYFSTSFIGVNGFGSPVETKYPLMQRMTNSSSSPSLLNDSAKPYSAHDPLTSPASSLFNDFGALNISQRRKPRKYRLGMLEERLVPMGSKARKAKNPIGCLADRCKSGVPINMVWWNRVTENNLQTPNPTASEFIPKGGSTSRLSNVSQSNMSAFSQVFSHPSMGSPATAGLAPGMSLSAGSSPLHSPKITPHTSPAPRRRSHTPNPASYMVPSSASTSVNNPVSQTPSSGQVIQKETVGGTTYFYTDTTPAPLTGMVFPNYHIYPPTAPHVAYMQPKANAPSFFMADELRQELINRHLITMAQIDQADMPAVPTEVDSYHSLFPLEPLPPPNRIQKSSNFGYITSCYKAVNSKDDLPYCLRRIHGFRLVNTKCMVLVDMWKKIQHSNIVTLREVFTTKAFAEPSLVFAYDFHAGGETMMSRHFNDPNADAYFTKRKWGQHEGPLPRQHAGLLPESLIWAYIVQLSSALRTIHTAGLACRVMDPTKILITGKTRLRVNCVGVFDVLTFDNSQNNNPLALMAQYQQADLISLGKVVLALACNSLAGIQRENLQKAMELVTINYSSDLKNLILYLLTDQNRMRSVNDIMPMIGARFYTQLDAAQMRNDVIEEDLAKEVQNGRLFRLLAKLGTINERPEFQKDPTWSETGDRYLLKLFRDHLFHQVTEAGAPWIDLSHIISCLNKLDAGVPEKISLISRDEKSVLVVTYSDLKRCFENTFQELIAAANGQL
Procedure: as §1

[1] = Activation Loop, read-out: Inhibition vs DMSO
[2] = Lys2, read-out: Inhibition vs DMSO

Sequence of LOK (O94804 whole entry): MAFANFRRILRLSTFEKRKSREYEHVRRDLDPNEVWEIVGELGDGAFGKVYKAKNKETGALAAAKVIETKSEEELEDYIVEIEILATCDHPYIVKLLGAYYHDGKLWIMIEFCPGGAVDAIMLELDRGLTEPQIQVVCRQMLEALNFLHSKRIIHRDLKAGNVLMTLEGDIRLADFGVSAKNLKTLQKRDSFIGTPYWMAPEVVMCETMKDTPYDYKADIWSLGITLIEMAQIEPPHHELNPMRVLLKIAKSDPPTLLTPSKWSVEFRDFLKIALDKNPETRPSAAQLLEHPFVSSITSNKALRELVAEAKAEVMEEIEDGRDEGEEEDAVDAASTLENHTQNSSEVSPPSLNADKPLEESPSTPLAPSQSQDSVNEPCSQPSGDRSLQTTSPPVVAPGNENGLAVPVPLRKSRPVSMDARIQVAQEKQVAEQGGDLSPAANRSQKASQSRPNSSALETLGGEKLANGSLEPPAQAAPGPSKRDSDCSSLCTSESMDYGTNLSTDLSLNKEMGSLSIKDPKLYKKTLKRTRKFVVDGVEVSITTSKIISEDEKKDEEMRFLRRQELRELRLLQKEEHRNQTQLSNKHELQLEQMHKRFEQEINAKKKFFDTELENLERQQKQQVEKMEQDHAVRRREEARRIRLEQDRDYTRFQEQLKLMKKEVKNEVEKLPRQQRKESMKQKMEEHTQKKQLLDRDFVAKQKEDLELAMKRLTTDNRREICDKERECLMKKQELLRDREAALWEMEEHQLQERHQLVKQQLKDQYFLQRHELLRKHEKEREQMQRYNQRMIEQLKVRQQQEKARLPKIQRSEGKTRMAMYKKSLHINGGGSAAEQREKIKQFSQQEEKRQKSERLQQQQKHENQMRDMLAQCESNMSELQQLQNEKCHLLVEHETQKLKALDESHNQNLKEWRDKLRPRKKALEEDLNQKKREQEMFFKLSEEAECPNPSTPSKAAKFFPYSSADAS
T2 sequence (P51812 whole entry, the tested form may be a part): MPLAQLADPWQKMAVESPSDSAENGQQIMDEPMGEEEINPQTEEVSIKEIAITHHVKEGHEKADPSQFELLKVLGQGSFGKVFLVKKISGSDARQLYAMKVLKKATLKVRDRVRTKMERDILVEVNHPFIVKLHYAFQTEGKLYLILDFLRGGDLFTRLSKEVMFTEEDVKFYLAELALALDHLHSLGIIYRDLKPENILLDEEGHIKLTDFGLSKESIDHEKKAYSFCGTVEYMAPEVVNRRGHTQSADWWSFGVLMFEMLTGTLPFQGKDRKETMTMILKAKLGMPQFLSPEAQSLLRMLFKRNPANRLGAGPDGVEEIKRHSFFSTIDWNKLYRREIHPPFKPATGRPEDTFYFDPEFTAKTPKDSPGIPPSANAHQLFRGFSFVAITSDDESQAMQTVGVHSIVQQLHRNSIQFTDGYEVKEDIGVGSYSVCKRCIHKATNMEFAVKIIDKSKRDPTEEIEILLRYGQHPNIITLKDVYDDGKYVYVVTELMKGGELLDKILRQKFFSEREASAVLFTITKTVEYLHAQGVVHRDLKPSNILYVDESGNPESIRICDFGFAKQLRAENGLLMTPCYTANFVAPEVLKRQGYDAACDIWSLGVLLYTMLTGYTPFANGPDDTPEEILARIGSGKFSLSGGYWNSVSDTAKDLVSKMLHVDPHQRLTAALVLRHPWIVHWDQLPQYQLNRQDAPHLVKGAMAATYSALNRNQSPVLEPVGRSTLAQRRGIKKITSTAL
Sequence of TAK1 (O43318 whole entry): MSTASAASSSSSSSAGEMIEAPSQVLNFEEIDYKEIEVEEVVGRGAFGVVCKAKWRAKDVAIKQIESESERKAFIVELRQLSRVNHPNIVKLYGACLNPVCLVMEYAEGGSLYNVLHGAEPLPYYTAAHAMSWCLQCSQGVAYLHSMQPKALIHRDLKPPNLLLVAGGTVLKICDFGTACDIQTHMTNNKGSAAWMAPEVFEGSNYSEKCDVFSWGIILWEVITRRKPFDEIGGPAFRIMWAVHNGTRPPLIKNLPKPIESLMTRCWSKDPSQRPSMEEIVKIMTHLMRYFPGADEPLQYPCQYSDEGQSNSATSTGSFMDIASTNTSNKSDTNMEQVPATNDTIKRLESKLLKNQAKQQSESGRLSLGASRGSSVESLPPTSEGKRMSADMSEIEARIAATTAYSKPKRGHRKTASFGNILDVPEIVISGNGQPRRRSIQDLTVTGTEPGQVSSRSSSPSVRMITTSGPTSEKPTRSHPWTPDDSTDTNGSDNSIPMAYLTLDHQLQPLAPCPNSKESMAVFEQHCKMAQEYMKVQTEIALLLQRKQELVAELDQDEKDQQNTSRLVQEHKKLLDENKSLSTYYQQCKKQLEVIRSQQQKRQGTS
Sequence of Erk5 (Q13164 whole entry): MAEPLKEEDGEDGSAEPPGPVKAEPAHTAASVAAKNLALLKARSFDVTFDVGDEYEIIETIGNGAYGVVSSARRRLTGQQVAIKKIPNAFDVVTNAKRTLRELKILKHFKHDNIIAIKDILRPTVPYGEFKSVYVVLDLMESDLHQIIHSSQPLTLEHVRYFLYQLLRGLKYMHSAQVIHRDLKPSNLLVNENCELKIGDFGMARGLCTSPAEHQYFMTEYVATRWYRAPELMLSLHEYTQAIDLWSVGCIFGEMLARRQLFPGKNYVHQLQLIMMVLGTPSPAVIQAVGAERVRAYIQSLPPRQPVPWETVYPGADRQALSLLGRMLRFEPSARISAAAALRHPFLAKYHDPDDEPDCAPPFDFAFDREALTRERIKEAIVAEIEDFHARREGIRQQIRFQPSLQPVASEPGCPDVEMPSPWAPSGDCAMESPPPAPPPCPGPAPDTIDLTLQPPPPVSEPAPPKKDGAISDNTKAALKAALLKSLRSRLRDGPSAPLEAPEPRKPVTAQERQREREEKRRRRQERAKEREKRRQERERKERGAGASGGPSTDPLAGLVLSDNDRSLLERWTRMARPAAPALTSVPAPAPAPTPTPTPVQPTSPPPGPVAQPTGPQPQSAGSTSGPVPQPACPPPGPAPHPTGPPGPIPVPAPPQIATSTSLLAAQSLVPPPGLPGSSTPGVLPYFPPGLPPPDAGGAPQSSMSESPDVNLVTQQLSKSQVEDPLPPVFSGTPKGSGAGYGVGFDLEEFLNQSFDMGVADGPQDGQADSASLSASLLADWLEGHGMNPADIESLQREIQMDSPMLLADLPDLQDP
Sequence of eEF2K (O00418 whole entry): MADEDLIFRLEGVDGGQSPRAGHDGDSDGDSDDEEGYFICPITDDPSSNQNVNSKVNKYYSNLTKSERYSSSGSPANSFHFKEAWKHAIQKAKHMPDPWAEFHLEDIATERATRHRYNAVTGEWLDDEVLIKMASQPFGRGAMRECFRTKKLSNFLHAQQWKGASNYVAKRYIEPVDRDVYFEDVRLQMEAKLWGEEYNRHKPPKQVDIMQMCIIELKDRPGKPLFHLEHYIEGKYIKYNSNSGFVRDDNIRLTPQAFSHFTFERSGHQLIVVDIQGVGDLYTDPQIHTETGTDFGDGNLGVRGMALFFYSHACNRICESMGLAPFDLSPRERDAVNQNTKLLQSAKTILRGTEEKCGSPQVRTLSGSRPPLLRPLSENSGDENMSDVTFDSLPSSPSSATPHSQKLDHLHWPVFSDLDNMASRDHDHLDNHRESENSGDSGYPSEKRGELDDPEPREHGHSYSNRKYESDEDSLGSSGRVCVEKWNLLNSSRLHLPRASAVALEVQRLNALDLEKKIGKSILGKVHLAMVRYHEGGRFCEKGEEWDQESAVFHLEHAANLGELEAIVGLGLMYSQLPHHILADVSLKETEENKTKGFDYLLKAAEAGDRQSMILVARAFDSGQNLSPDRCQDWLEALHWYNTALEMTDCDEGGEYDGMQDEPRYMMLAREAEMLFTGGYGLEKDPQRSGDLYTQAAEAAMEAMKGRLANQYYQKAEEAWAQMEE
Sequence of IRAK1 (P51617 whole entry): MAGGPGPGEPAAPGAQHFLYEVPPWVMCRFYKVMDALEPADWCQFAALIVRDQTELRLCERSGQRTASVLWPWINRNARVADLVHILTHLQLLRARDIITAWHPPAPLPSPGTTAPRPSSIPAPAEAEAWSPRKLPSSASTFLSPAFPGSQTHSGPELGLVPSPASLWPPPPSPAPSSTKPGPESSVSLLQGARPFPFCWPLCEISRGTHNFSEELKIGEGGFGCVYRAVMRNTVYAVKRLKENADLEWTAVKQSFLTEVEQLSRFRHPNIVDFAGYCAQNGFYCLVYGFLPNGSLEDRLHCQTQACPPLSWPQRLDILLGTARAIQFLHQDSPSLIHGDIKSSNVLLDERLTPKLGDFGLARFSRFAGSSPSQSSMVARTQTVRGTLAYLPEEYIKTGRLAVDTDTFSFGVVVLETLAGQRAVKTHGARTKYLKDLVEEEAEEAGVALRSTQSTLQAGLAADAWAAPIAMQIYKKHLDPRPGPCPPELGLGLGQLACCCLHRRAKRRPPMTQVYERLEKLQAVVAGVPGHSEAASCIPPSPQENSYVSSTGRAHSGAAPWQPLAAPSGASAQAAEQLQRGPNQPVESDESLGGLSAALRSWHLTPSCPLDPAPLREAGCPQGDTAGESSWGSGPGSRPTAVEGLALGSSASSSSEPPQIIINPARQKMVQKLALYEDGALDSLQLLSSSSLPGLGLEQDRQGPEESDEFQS
Sequence of ULK3 (Q6PHR2 whole entry): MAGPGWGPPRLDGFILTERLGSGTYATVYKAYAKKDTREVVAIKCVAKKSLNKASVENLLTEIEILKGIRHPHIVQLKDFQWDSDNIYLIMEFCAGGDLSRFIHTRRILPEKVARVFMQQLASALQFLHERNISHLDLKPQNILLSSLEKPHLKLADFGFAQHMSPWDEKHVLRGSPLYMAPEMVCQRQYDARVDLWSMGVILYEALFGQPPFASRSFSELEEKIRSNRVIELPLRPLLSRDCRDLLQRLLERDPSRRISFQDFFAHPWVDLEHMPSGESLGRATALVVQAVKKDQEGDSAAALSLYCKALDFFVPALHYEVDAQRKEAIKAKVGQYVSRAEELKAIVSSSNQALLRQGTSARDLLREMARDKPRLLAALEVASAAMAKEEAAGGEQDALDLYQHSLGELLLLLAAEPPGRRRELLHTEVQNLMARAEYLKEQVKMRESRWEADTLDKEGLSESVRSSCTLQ

In the case of `CN1CCN(Cc2ccc(Nc3ncc(Cl)c(Nc4ccccc4S(=O)(=O)N(C)C)n3)cc2)CC1` [TP-0903], the inhibition at 0.1 µM (eEF2K) is reported as -29.5%, the “Inhibition vs DMSO” value (ULK3) is reported as 28.7% and the inhibition at 0.1 µM (CDK7) is reported as 86.1%. For the same molecule, the inhibition at 0.1 µM (AurB) was 60.1%, the inhibition at 0.1 µM (NEK9; [1]) was 45.7% and the inhibition at 0.1 µM (NEK9; Lys1, read-out: Inhibition vs DMSO) was 48%. The inhibition at 0.1 µM (NEK9; [2]) was 48.8%, the inhibition at 0.1 µM (TAK1) was -2.8% and the inhibition at 0.1 µM (DGKA) was -9.4%. For the same molecule, the “Inhibition vs DMSO” value (LOK; Lys1) was 56.8%, the “Inhibition vs DMSO” value (LOK; Lys2) was 82.8% and the inhibition at 0.1 µM (RSK2 domain1; [1]) was 22.7%. For the same molecule, the inhibition at 0.1 µM (RSK2 domain1; [2]) was -0.9%, the inhibition at 0.1 µM (IRAK1) was 43.3% and the inhibition at 0.1 µM (NEK2) was -4.6%. The inhibition at 0.1 µM (FRAP) was -9.8%, the inhibition at 0.1 µM (Erk5) was 84.9% and the inhibition at 0.1 µM (PAN3; IQKSSNFGYITSCYK) was 11.2%. The inhibition at 0.1 µM (PAN3; VMDPTKILITGK) was -0.5%.
